Data from PubChem BioAssay (NCI).
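GI50 marks 50% less growth. TGI: concentration producing complete growth inhibition.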

How the values were obtained:
Experiment in all cases: growth of human tumour cells (NCI), 384-well format
HCT-116 colon = system: HCT-116 colon
EKVX NSCLC = system: EKVX NSCLC
RPMI-8226 leukemia = system: RPMI-8226 leukemia
OVCAR-8 ovarian = system: OVCAR-8 ovarian
LOX IMVI melanoma = system: LOX IMVI melanoma
NCI-H322M lung = system: NCI-H322M lung
TK-10 renal = system: TK-10 renal
PC-3 prostate = system: PC-3 prostate
K-562 leukemia = system: K-562 leukemia
NCI-H226 lung = system: NCI-H226 lung
T-47D breast = system: T-47D breast
UACC-257 melanoma = system: UACC-257 melanoma
U251 glioblastoma = system: U251 glioblastoma

C[C@@H]1CN(CC(=O)N2CC(C)(C)c3nc(CO)c(Cc4ccc(F)cc4)cc32)[C@@H](CN2CCOC[C@H]2C)CN1
GI50 (HCT-116 colon): 35.6 µM
TGI (HCT-116 colon): > 91.2 µM
GI50 (EKVX NSCLC): 29.9 µM
TGI (EKVX NSCLC): > 88.8 µM
GI50 (RPMI-8226 leukemia): 23.1 µM
TGI (RPMI-8226 leukemia): 38 µM
GI50 (OVCAR-8 ovarian): 17.7 µM
TGI (OVCAR-8 ovarian): 47.8 µM
GI50 (LOX IMVI melanoma): 17.6 µM
TGI (LOX IMVI melanoma): 31.5 µM
GI50 (NCI-H322M lung): 33.5 µM
TGI (NCI-H322M lung): > 73.1 µM
GI50 (TK-10 renal): 27.9 µM
TGI (TK-10 renal): 52.9 µM
GI50 (PC-3 prostate): 65.2 µM
TGI (PC-3 prostate): > 100 µM
GI50 (K-562 leukemia): 16.8 µM
TGI (K-562 leukemia): 30.9 µM
GI50 (NCI-H226 lung): 40.4 µM
TGI (NCI-H226 lung): > 82.3 µM
GI50 (T-47D breast): 22.4 µM
TGI (T-47D breast): 49 µM
GI50 (UACC-257 melanoma): 16.1 µM
TGI (UACC-257 melanoma): 29.7 µM
GI50 (U251 glioblastoma): 28.1 µM
TGI (U251 glioblastoma): 62.4 µM
